Assay [1] concerns the target T1, human δ-opioid receptor (OPRD1) (Homo sapiens, UniProt P41143). Kind of assay: forskolin-induced cAMP accumulation assay, DOR agonist. The following applies: for Emax: CHO-K1, read-out: DOR Agonist %Emax ± SEM, CHO-K1 cells expressing human DOR; for EC50: DOR Agonist EC50 ± SEM, inhibition of forskolin-induced cAMP accumulation.
The target of assay [2] is T2, human μ-opioid receptor (OPRM1) (Homo sapiens, UniProt P35372).
T2 construct: host or cells: cAMP Hunter CHO-K1 (Chinese hamster ovary) cells
T2 sequence (P35372 whole entry): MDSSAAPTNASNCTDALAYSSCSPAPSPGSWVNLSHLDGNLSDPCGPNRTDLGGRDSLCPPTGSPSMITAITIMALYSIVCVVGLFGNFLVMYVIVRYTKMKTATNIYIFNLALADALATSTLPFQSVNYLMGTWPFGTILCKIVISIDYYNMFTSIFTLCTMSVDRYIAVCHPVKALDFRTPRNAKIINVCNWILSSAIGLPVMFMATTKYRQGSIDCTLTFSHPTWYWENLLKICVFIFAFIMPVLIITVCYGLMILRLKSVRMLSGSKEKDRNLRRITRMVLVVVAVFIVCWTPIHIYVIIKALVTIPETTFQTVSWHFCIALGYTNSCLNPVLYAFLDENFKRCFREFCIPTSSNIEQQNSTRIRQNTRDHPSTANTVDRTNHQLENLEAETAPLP
Put plainly: cell-based. The following applies: for EC50: MOR Agonist EC50 ± SEM; for Emax: read-out: MOR Agonist %Emax ± SEM.

The target in assay [3] is T3, human κ-opioid receptor (OPRK1) (Homo sapiens, UniProt P41145). Kind of assay: forskolin-induced cAMP accumulation assay, KOR antagonist.
T3 sequence (P41145 whole entry): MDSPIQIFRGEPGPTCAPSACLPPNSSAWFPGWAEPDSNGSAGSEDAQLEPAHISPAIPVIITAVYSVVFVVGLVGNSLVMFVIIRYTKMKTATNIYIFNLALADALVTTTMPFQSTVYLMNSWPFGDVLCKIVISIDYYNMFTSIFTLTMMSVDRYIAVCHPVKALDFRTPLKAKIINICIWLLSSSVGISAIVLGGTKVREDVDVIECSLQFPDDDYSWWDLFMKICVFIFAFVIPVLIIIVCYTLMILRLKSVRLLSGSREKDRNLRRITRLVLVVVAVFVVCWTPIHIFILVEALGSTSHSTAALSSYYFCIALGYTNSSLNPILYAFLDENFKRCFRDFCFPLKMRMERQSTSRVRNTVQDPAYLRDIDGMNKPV
The target of assay [4] is T3, human κ-opioid receptor (OPRK1). Put plainly: forskolin-induced cAMP accumulation assay, KOR agonist. The following applies: for EC50: KOR Agonist EC50 ± SEM, inhibition of forskolin-induced cAMP accumulation, CHO-K1 cells expressing human KOR; for Emax: CHO-K1, read-out: KOR Agonist %Emax ± SEM, CHO-K1 cells expressing human KOR, normalized to the forskolin control. A general note: Changes in cAMP serve as a functional read-out for many G protein-coupled receptors.

In assay [5] the target is T1, human δ-opioid receptor (OPRD1). Put plainly: forskolin-induced cAMP accumulation assay, DOR antagonist. It counts as cell-based. The arrangement: host or cells: cAMP Hunter CHO-K1 (Chinese hamster ovary) cells. The following applies: for DOR Antagonist %Imax ± SEM: CHO-K1 human DOR, versus EC50 of SNC80, Imax normalized to naltrexone.
Setting [6] is: normalized to the forskolin control.
The mark [7] stands for this setting: CHO-K1 cells expressing human DOR.

Where “and” joins values, the source holds several entries; their conditions need not be identical. Identical values can stand only once.

T1 sequence (P41143 whole entry): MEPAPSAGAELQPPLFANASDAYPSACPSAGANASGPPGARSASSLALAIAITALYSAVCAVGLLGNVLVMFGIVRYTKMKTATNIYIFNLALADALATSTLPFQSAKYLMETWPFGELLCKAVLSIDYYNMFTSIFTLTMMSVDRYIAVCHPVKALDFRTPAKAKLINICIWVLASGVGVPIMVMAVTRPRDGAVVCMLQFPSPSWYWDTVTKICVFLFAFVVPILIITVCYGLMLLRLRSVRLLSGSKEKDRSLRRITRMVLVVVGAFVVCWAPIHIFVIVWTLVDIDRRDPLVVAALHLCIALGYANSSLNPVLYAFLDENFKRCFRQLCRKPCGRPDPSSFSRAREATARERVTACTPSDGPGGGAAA

For `N[C@H]1[C@H]2CCC[C@]1(c1cccc(O)c1)CCN2CCc1ccccc1` [1R,5R,9R-23, 3-((1R,5R,9R)-9-Amino-2-phenethyl-2-azabicyclo[3.3.1]nonan-5-yl)phenol], the Emax (in general, the maximal effect, on the per cent scale that the assay sets) is 46.6% in assay [1] (setting [6]) and 81% in assay [2]. Moreover, the EC50 (in general, the concentration needed to bring the measured effect to its halfway point) in assay [1] (setting [7]) is 186 ± 12.5 nM; in assay [2], 26 nM and 26.1 nM; in assay [4] it was more than 10000 nM. Further, the IC50 (usually the concentration at which inhibition is half-maximal) in assay [3] was more than 10000 nM.
Consider `N[C@@H]1[C@H]2CCC[C@]1(c1cccc(O)c1)CCN2CCc1ccccc1` [1R,5R,9S-6, 3-((1R,5R,9S)-9-Amino-2-phenethyl-2-azabicyclo[3.3.1]nonan-5-yl)phenol], for which the Emax in assay [1] (setting [6]) is 39.4%; in assay [2], 91%. Moreover, the EC50 in assay [1] (setting [7]) is 690 ± 188 nM; in assay [2], 24 nM; in assay [4], more than 10000 nM. Further, the IC50 in assay [3] and in assay [5] was more than 10000 nM in each case.
As for `CN[C@@H]1[C@H]2CCC[C@]1(c1cccc(O)c1)CCN2CCc1ccccc1` [1R,5R,9S-10, 3-((1R,5R,9S)-9-(Methylamino)-2-phenethyl-2-azabicyclo[3.3.1]nonan-5-yl)phenol], in assay [2], the EC50 is 83 nM and 82.8 nM; the Emax amounted to 28%.
On to `ON=C1[C@H]2CCC[C@]1(c1cccc(O)c1)CCN2CCc1ccccc1` [1R,5R-17, (1R,5R)-5-(3-Hydroxyphenyl)-2-phenethyl-2-azabicyclo[3.3.1]nonan-9-one oxime], for which the values for the Emax in assay [1] (setting [6]), in assay [2] and in assay [4] were 32.2%, 99% and 21.2%, respectively. For the same compound, the EC50 was 157 ± 72 nM in assay [1] (setting [7]); 22 nM and 22.1 nM in assay [2]; 146 ± 19 nM in assay [4]. Further, the IC50 was more than 10000 nM in assay [3] and 1080 ± 464 nM in assay [5]. The “DOR Antagonist %Imax ± SEM” value in assay [5] is given as 66.5 ± 6.0%.
As to `N#CC=C1[C@H]2CCC[C@]1(c1cccc(O)c1)CCN2CCc1ccccc1` [1R,5R-33, 2-((1R,5R)-5-(3-hydroxyphenyl)-2-phenethyl-2-azabicyclo[3.3.1]nonan-9-ylidene)acetonitrile], the Emax was 69% in assay [1] (setting [6]), 100% in assay [2] and more than 50% in assay [4]. Moreover, the “DOR Agonist %Emax ± SEM” value in assay [1] (CHO-K1 cells expressing human DOR, normalized to the forskolin control) amounted to 69.3 ± 6.0%. For the same compound, the EC50 in assay [1] (setting [7]) was 8 nM and 8.1 nM; in assay [2] it was 1.8 nM; in assay [4], more than 10000 nM. In addition, the “MOR agonist potency relative to morphine (times more potent)” value in assay [2] is recorded as “about three times”.
Regarding `N#CC[C@H]1[C@H]2CCC[C@]1(c1cccc(O)c1)CCN2CCc1ccccc1` [1R,5S,9R-35, 2-((1R,5S,9R)-5-(3-hydroxyphenyl)-2-phenethyl-2-azabicyclo[3.3.1]nonan-9-yl)acetonitrile], the Emax is 35% in assay [1] (setting [6]) and 99% in assay [2]. Besides, the EC50 in assay [1] (setting [7]) is 4 nM and 4.3 nM; in assay [2], 0.85 nM; in assay [4], more than 10000 nM. Moreover, the IC50 in assay [3] is more than 10000 nM; in assay [5], 94.5 ± 29.5 nM. In assay [5], the “DOR Antagonist %Imax ± SEM” value was 35.1 ± 2.6%.
`CNC[C@@H]1[C@H]2CCC[C@]1(c1cccc(O)c1)CCN2CCc1ccccc1` [1R,5S,9R-52, 3-((1R,5S,9R)-9-((Methylamino)methyl)-2-phenethyl-2-azabicyclo[3.3.1]nonan-5-yl)phenol]: the Emax was 62% in assay [1] (setting [6]), 94% in assay [2] and 57% in assay [4]. Besides, the EC50 was 502 ± 125 nM in assay [1] (setting [7]); 43 nM and 43.3 nM in assay [2]; 210 ± 92 nM in assay [4].
For the compound `N#CC[C@@H]1[C@H]2CCC[C@]1(c1cccc(O)c1)CCN2CCc1ccccc1` [1R,5S,9S-41, 2-((1R,5S,9S)-5-(3-Hydroxyphenyl)-2-phenethyl-2-azabicyclo[3.3.1]nonan-9-yl)acetonitrile], the EC50 in assay [2] was more than 10000 nM.
On to `CNC[C@H]1[C@H]2CCC[C@]1(c1cccc(O)c1)CCN2CCc1ccccc1` [1R,5S,9S-53, 3-((1R,5S,9S)-9-((Methylamino)methyl)-2-phenethyl-2-azabicyclo[3.3.1]nonan-5-yl)phenol], for which the Emax in assay [1] (setting [6]) is 17.4%; in assay [2], 97%. For the same compound, the EC50 in assay [1] (setting [7]) was 43.9 ± 22.2 nM; in assay [2], 16 nM and 15.9 nM; in assay [4], more than 10000 nM. Besides, the figures for the IC50 in assay [3] and in assay [5] were more than 10000 nM and 1630 ± 882 nM, respectively. The “DOR Antagonist %Imax ± SEM” value in assay [5] is 109.3 ± 5.2%.
Regarding `N#CC[C@H]1[C@@H]2CCC[C@@]1(c1cccc(O)c1)CCN2CCc1ccccc1` [1S,5R,9R-38, 2-((1S,5R,9R)-5-(3-Hydroxyphenyl)-2-phenethyl-2-azabicyclo[3.3.1]nonan-9-yl)acetonitrile], the Emax is 46.8% in assay [1] (setting [6]) and 89.6% in assay [2]. For the same compound, the EC50 in assay [1] (setting [7]) was 55 ± 3.9 nM; in assay [2], 2.5 nM; in assay [4], more than 10000 nM. Also, in assay [2], the “MOR agonist potency relative to morphine (times more potent)” value was “about twice”. Further, in assay [3], the IC50 turned out to be 44 ± 4 nM. Also, the “KOR Antagonist %Imax ± SEM” value in assay [3] (CHO-K1 human KOR, versus EC90 of U50488H, Imax normalized to nor-BNI) is 97 ± 0.1%.
With `CNC[C@@H]1[C@@H]2CCC[C@@]1(c1cccc(O)c1)CCN2CCc1ccccc1` [1S,5R,9R-47, 3-((1S,5R,9R)-9-((Methylamino)methyl)-2-phenethyl-2-azabicyclo[3.3.1]nonan-5-yl)phenol], the Emax in assay [1] (setting [6]) was 84.7%; in assay [2] it was 102%; in assay [4] it was 93.4%. In addition, the EC50 was 416 ± 21.1 nM in assay [1] (setting [7]); 3.7 nM and 3.66 nM in assay [2]; 95.7 ± 17 nM in assay [4].
In the case of `N#CC[C@@H]1[C@@H]2CCC[C@@]1(c1cccc(O)c1)CCN2CCc1ccccc1` [1S,5R,9S-34, 2-((1S,5R,9S)-5-(3-Hydroxyphenyl)-2-phenethyl-2-azabicyclo[3.3.1]nonan-9-yl)acetonitrile], the results for the Emax in assay [1] (setting [6]) and in assay [2] were 61.5% and 101%, respectively. Further, the EC50 was 575 ± 127 nM in assay [1] (setting [7]); 27 nM and 27.3 nM in assay [2]; more than 10000 nM in assay [4]. In assay [3], the IC50 was more than 10000 nM.
As to `N[C@H]1[C@@H]2CCC[C@@]1(c1cccc(O)c1)CCN2CCc1ccccc1` [1S,5S,9R-3, 3-((1S,5S,9R)-9-Amino-2-phenethyl-2-azabicyclo[3.3.1]nonan-5-yl)phenol], the EC50 in assay [2] and in assay [4] was more than 10000 nM throughout.
Regarding `CN[C@H]1[C@@H]2CCC[C@@]1(c1cccc(O)c1)CCN2CCc1ccccc1` [1S,5S,9R-8, 3-((1S,5S,9R)-9-(Methylamino)-2-phenethyl-2-azabicyclo[3.3.1]nonan-5-yl)phenol], the EC50 in assay [2] and in assay [4] was more than 10000 nM in each case.
For `N[C@@H]1[C@@H]2CCC[C@@]1(c1cccc(O)c1)CCN2CCc1ccccc1` [1S,5S,9S-22, 3-((1S,5S,9S)-9-Amino-2-phenethyl-2-azabicyclo[3.3.1]nonan-5-yl)phenol], in assay [2], the EC50 was 94 nM and 94.1 nM; the Emax was determined as 53%.
As to `ON=C1[C@@H]2CCC[C@@]1(c1cccc(O)c1)CCN2CCc1ccccc1` [1S,5S-15, (1S,5S)-5-(3-Hydroxyphenyl)-2-phenethyl-2-azabicyclo[3.3.1]nonan-9-one oxime], in assay [2], the EC50 is 229 nM and the Emax turned out to be 91%. Moreover, the EC50 in assay [4] was more than 10000 nM.
On to `N#CC=C1[C@@H]2CCC[C@@]1(c1cccc(O)c1)CCN2CCc1ccccc1` [1S,5S-28, 2-((1S,5S)-5-(3-Hydroxyphenyl)-2-phenethyl-2-azabicyclo[3.3.1]nonan-9-ylidene)acetonitrile], for which the Emax in assay [1] (setting [6]) was 51.4%; in assay [2], 101%. Further, the EC50 in assay [1] (setting [7]) was 1520 ± 385 nM; in assay [2], 27 nM and 27.2 nM; in assay [4], more than 10000 nM. The IC50 in assay [3] is more than 10000 nM.
For `Oc1ccc2c3c1O[C@H]1c4[nH]c5ccccc5c4C[C@@]4(O)[C@@H](C2)N(CC2CC2)CC[C@]314` [Naltrindole, reference compound], the “DOR Antagonist %Imax ± SEM” value in assay [5] came to 106.8 ± 4.8%.

Source of the values: article PMC11085448 (Molecules, 2024).
